# Tests used:
# PTP-1B = biological target: T1, PTP-1B (Homo sapiens, UniProt P18031); assay: Inhibition of binding PTP-1B with IR (protein chip, anti-IR phosphorylation antibody); format: biochemical; conditions: mean±SD, n=6
# T1 sequence (P18031 1-435): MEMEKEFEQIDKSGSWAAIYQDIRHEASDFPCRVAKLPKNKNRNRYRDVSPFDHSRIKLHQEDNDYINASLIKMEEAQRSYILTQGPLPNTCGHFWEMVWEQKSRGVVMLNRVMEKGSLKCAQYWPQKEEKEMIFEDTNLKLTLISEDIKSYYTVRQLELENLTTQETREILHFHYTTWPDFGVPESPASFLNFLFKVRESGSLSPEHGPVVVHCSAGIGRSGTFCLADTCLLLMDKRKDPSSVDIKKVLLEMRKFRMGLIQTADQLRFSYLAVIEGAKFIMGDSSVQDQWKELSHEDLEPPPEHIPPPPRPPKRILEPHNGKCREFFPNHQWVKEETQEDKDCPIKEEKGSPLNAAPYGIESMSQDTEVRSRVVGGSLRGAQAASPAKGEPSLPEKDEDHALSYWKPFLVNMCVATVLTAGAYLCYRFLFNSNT
# Experimental: IR molecules stood for 1 hour at 30° C. to induce phosphorylation, and each 1 μl of IR molecules were fixed with protein chips(PeproTech) at 4° C. The protein chips were washed with washing buffer for 10 minutes, and blocked with blocking buffer(3% BSA in PBS, pH 7.4) at room temperature for 1 hour followed by washing with washing buffer. Each sample was as follow:
# 0. Blank control(C), 0.5 μl PEG (10%, polyethylene glycol)+0.5 μl PTP-1B buffer;
# 1. Negative control(N), 0.5 μl PEG (10%)+0.5 μl PTP-1B;
# 2. Positive control(P), 0.5 μl Na3VO4(sodium orthovanadate; 1 mM, pH 10)+0.5 μl PTP-1B;
# 3. Experimental group(ZA), 0.5 μl ZA (5 μM)+0.5 μl PTP-1B
# The protein chips were washed for 10 minutes, and each was treated with 1 μl of anti-IR phosphorylation antibodies diluted by dilution buffer in 1/100 followed by incubating for 1 hour at 30° C. And then, it was washed with washing buffer for 10 minutes, and each was treated with […] of Cy5-fluorescent coupled rabbit anti-IgG antibodies diluted by dilution buffer in 1/100 followed by incubating for 1 hour at 30° C. They were washed for 10 minutes, scanned by microarray scanner system to analyze to GraphPad Prism 4 software.
# The results are presented as the mean±SD(%). Statistical analysis was performed using Student's t-test, and P<0.05 was considered as a significance (n=6).
# Rat pancreatic islets = assay: Insulin secretion level by hyperglycemia stimulation in primary pancreatic islets; format: cell-based, Sprague Dawley rats; conditions: 5 μM ZA for 3 days, mean±SD of five experiments
# Experimental: Rat pancreatic islets were isolated from Sprague Dawley rats (200˜230 g) by digesting the pancreatic duct with collagenase P (1 mg/ml in PBS). After digestion, the islets were separated with Histopaque-1077 (Sigma, St. Louis, Mo.). The primary islets were cultured in RPMI 1640 medium containing 10% fetal bovine serum (FBS), penicillin (100 IU/ml) and streptomycin (100 g/ml). Equal number of primary islet clusters was transferred into micro-centrifuge tube with 1 ml of 10% RPMI 1640, and incubated under normal (5.5 mM glucose) and glucotoxic conditions with or without Zoledronic acid (5 μM) for 3 days. Exposure to glucotoxic conditions was followed by treating with 0.6 mM free fatty acid (FFA; palmitate/oleate, 2:1) and 25 mM glucose in RPMI 1640 with 10% FBS. FFA were complexed with 5% fatty acid-free BSA in PBS. Cultured islets were washed in Krebs-Ringer-bicarbonate (KRB) buffer (130 mM NaCl, 3.6 mM KCl, 1.5 mM CaCl2, 0.5 mM MgSO4, 0.5 mM KH2PO4. 2.0 mM NaHCO2 and 10 mM HEPES) and incubated in KRB buffer for 1 hour followed by further incubation in KRB buffer containing 5.5 mM glucose for 1 hour. Samples were centrifuged at 12,000 g for 1 min and the supernatant was collected for measurement. […] Insulin concentrations from two supernatants removed at two different conditions were measured with a RIA kit (Linco) The results are presented as the mean±SD of five independent experiments. […]
"inhibition effect of binding PTP-1B with IR (PTP-1B; positive control, Na3VO4 1 mM, pH 10)","inhibition at 5 µM (PTP-1B; ZA 5 μM, read-out: inhibition effect of binding PTP-1B with IR)",SMILES,"insulin secretion level (Rat pancreatic islets; diabetes mellitus condition (25 mM glucose, glucotoxic), untreated reduced to 52±19% compared to normal condition)","insulin secretion level (Rat pancreatic islets; normal condition (5.5 mM glucose), untreated = 100±17%)"
87±4%,–,"[Na+].[Na+].[Na+].[O]=[V]([O-])([O-])[O-] [Na3VO4, sodium orthovanadate]",–,–
–,89 ± 21%,"O=P(O)(O)C(O)(Cn1ccnc1)P(=O)(O)O [ZA, [1-hydroxy-2-(1H-imidazol-1-yl)ethane-1,1-diyl]bis(phosphonic acid)]",72±34%,82±43%

# Reference: US8623845B1, “Pharmaceutical composition for preventing or treating Diabetes mellitus comprising bisphophonates” (Metacine, Inc., priority 2012, dated 2014)
